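Briefly, cells in 96-well plates were exposed to five compound concentrations for 48 h, and endpoints were estimated by linear interpolation. TGI: total growth inhibition.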
Experiments:
Assay in all cases: NCI anticancer screen, dose series, 48 h
786-0 renal = test system: 786-0 renal
A549 NSCLC = test system: A549 NSCLC
ACHN renal = test system: ACHN renal
CCRF-CEM leukemia = test system: CCRF-CEM leukemia
COLO 205 colon = test system: COLO 205 colon
DMS 114 small cell lung = test system: DMS 114 small cell lung
DMS 273 small cell lung = test system: DMS 273 small cell lung
EKVX NSCLC = test system: EKVX NSCLC
HCT-116 colon = test system: HCT-116 colon
HL-60(TB) leukemia = test system: HL-60(TB) leukemia
HOP-18 NSCLC = test system: HOP-18 NSCLC
HOP-92 NSCLC = test system: HOP-92 NSCLC
HT29 colon = test system: HT29 colon
K-562 leukemia = test system: K-562 leukemia
M14 melanoma = test system: M14 melanoma
MALME-3M melanoma = test system: MALME-3M melanoma
MOLT-4 leukemia = test system: MOLT-4 leukemia
NCI-H23 lung = test system: NCI-H23 lung
OVCAR-3 ovarian = test system: OVCAR-3 ovarian
OVCAR-4 ovarian = test system: OVCAR-4 ovarian
OVCAR-8 ovarian = test system: OVCAR-8 ovarian
RPMI-8226 leukemia = test system: RPMI-8226 leukemia
SF-268 CNS = test system: SF-268 CNS
SF-295 CNS = test system: SF-295 CNS
SF-539 CNS = test system: SF-539 CNS
SK-MEL-28 melanoma = test system: SK-MEL-28 melanoma
SK-OV-3 ovarian = test system: SK-OV-3 ovarian
SN12C renal = test system: SN12C renal
SNB-19 CNS = test system: SNB-19 CNS
SNB-75 CNS = test system: SNB-75 CNS
SNB-78 CNS = test system: SNB-78 CNS
U251 CNS = test system: U251 CNS
UACC-257 melanoma = test system: UACC-257 melanoma
UO-31 renal = test system: UO-31 renal
XF 498 CNS = test system: XF 498 CNS
A498 renal = test system: A498 renal
BT-549 breast = test system: BT-549 breast
CAKI-1 renal = test system: CAKI-1 renal
DU-145 prostate = test system: DU-145 prostate
HCC-2998 colon = test system: HCC-2998 colon
HCT-15 colon = test system: HCT-15 colon
HOP-62 NSCLC = test system: HOP-62 NSCLC
HS 578T breast = test system: HS 578T breast
IGROV1 ovarian = test system: IGROV1 ovarian
KM12 colon = test system: KM12 colon
LOX IMVI melanoma = test system: LOX IMVI melanoma
MCF7 breast = test system: MCF7 breast
MDA-MB-231 breast = test system: MDA-MB-231 breast
MDA-MB-435 = test system: MDA-MB-435
MDA-N = test system: MDA-N
NCI-H226 lung = test system: NCI-H226 lung
NCI-H460 lung = test system: NCI-H460 lung
NCI-H522 lung = test system: NCI-H522 lung
NCI/ADR-RES ovarian = test system: NCI/ADR-RES ovarian
OVCAR-5 ovarian = test system: OVCAR-5 ovarian
PC-3 prostate = test system: PC-3 prostate
RXF 393 renal = test system: RXF 393 renal
SK-MEL-2 melanoma = test system: SK-MEL-2 melanoma
SK-MEL-5 melanoma = test system: SK-MEL-5 melanoma
SR leukemia = test system: SR leukemia
SW-620 colon = test system: SW-620 colon
T-47D breast = test system: T-47D breast
TK-10 renal = test system: TK-10 renal
UACC-62 melanoma = test system: UACC-62 melanoma

COc1ccc(CSc2nc3ccccc3nc2-c2cccs2)cc1
TGI (786-0 renal): > 100 µM
TGI (A549 NSCLC): > 100 µM
TGI (ACHN renal): > 100 µM
TGI (CCRF-CEM leukemia): 76.3 µM
TGI (COLO 205 colon): > 100 µM
TGI (DMS 114 small cell lung): > 100 µM
TGI (DMS 273 small cell lung): > 100 µM
TGI (EKVX NSCLC): > 100 µM
TGI (HCT-116 colon): > 100 µM
TGI (HL-60(TB) leukemia): > 100 µM
TGI (HOP-18 NSCLC): > 100 µM
TGI (HOP-92 NSCLC): > 100 µM
TGI (HT29 colon): > 100 µM
TGI (K-562 leukemia): > 100 µM
TGI (M14 melanoma): > 100 µM
TGI (MALME-3M melanoma): > 100 µM
TGI (MOLT-4 leukemia): > 100 µM
TGI (NCI-H23 lung): > 100 µM
TGI (OVCAR-3 ovarian): > 100 µM
TGI (OVCAR-4 ovarian): > 100 µM
TGI (OVCAR-8 ovarian): > 100 µM
TGI (RPMI-8226 leukemia): > 100 µM
TGI (SF-268 CNS): > 100 µM
TGI (SF-295 CNS): > 100 µM
TGI (SF-539 CNS): > 100 µM
TGI (SK-MEL-28 melanoma): > 100 µM
TGI (SK-OV-3 ovarian): > 100 µM
TGI (SN12C renal): > 100 µM
TGI (SNB-19 CNS): > 100 µM
TGI (SNB-75 CNS): > 100 µM
TGI (SNB-78 CNS): > 100 µM
TGI (U251 CNS): > 100 µM
TGI (UACC-257 melanoma): > 100 µM
TGI (UO-31 renal): > 100 µM
TGI (XF 498 CNS): > 100 µM

N=c1oc2ccc(Cl)cc2cc1C(=O)Nc1ccccc1
TGI (786-0 renal): > 100 µM
TGI (A498 renal): > 100 µM
TGI (A549 NSCLC): > 100 µM
TGI (ACHN renal): > 100 µM
TGI (BT-549 breast): > 100 µM
TGI (CAKI-1 renal): > 100 µM
TGI (CCRF-CEM leukemia): > 100 µM
TGI (COLO 205 colon): > 100 µM
TGI (DU-145 prostate): > 100 µM
TGI (EKVX NSCLC): > 100 µM
TGI (HCC-2998 colon): > 100 µM
TGI (HCT-116 colon): > 100 µM
TGI (HCT-15 colon): > 100 µM
TGI (HL-60(TB) leukemia): > 100 µM
TGI (HOP-62 NSCLC): > 94.8 µM
TGI (HOP-92 NSCLC): > 100 µM
TGI (HS 578T breast): > 59.6 µM
TGI (HT29 colon): > 100 µM
TGI (IGROV1 ovarian): > 100 µM
TGI (K-562 leukemia): > 100 µM
TGI (KM12 colon): > 100 µM
TGI (LOX IMVI melanoma): > 100 µM
TGI (M14 melanoma): > 100 µM
TGI (MALME-3M melanoma): > 100 µM
TGI (MCF7 breast): > 100 µM
TGI (MDA-MB-231 breast): > 100 µM
TGI (MDA-MB-435): > 100 µM
TGI (MDA-N): > 100 µM
TGI (MOLT-4 leukemia): > 100 µM
TGI (NCI-H226 lung): > 100 µM
TGI (NCI-H23 lung): > 100 µM
TGI (NCI-H460 lung): > 100 µM
TGI (NCI-H522 lung): > 100 µM
TGI (NCI/ADR-RES ovarian): > 100 µM
TGI (OVCAR-3 ovarian): > 100 µM
TGI (OVCAR-4 ovarian): > 100 µM
TGI (OVCAR-5 ovarian): > 100 µM
TGI (OVCAR-8 ovarian): > 100 µM
TGI (PC-3 prostate): > 100 µM
TGI (RPMI-8226 leukemia): > 100 µM
TGI (RXF 393 renal): > 100 µM
TGI (SF-268 CNS): > 100 µM
TGI (SF-295 CNS): > 100 µM
TGI (SF-539 CNS): > 100 µM
TGI (SK-MEL-2 melanoma): > 100 µM
TGI (SK-MEL-28 melanoma): > 100 µM
TGI (SK-MEL-5 melanoma): > 100 µM
TGI (SK-OV-3 ovarian): > 70.2 µM
TGI (SN12C renal): > 100 µM
TGI (SNB-19 CNS): > 100 µM
TGI (SNB-75 CNS): > 86.4 µM
TGI (SR leukemia): > 100 µM
TGI (SW-620 colon): > 100 µM
TGI (T-47D breast): > 44.8 µM
TGI (TK-10 renal): > 100 µM
TGI (U251 CNS): > 93 µM
TGI (UACC-257 melanoma): > 100 µM
TGI (UACC-62 melanoma): > 100 µM
TGI (UO-31 renal): > 100 µM

From PubChem BioAssay (NCI)
